Laboratory results reported in patent US12534455B2, “Phthalazine derivatives as P2X3 inhibitors” (CHIESI FARMACEUTICI S.P.A., priority 2020, dated 2026).
Where two headings read alike, the source gives them in different places.

Columns and labels:
h P2X3 = target: T1, h P2X3 (Homo sapiens, UniProt P56373); test: In vitro electrophysiology assay for P2X3 (Sophion Qube automated patch-clamp, α,β-MeATP agonist); type: cell-based; details: for h P2X3 (pIC50 range of activity): Table 3
T1 sequence (P56373 1-397): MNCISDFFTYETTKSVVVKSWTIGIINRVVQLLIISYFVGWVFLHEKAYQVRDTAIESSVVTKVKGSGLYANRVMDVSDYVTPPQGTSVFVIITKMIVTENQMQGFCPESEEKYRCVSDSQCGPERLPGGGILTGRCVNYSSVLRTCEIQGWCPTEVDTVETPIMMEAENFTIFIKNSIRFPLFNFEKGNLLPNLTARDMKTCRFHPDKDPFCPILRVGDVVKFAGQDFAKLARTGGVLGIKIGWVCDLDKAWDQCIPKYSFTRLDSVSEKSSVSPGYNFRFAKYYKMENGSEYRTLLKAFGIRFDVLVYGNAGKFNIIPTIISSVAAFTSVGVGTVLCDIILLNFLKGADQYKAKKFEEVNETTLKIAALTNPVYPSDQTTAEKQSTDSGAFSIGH
Procedure: Pharmacological Activity of the Compounds of the Invention. In Vitro Electrophysiology Assay for P2X3
Cells expressing P2X3 receptors were grown according to standard practice and maintained at 37° C. in a 5% humidified CO2 atmosphere. The cells were seeded into T175 flask 2 days prior to the day of the assay and dissociated from the flasks using TrypLE when grown to confluence of 80-90%. The dissociated cells were resuspended in serum free media at a cell density of 3×10^6 cells/ml and loaded onto the Sophion Qube automated patch-clamp system. The extracellular assay buffer contained 145 mM NaCl, 4 mM KCl, 2 mM CaCl2, 1 mM MgCl2, 10 mM HEPES, and 10 mM glucose at pH 7.4. The intracellular assay solution contained 140 mM CsF, 10 mM NaCl, 10 mM EGTA, 10 mM HEPES at pH 7.2. Agonist stock solutions were prepared in H2O and diluted in bath solution prior to use. All antagonists were prepared as 10 mM stock solutions in DMSO and diluted in bath solution prior to use. All experiments were performed under the whole-cell patch clamp configuration at room temperature with 384 individual cells being voltage clamped at −60 mV simultaneously on the Sophion Qube instrument. Two baseline responses were established with the application of α,β-MeATP (800 nM), with the subsequent agonist applications being washed out using extracellular assay buffer containing 0.5 U/ml apyrase. Following the second agonist application, antagonist was incubated in the absence of α,β-MeATP for 10 minutes. After antagonist preincubation, 800 nM α,β-MeATP and antagonist were co-administered to determine the inhibitory effect of the antagonist. One concentration of an antagonist was assessed against a single cell, with different concentrations of the antagonist applied to other cells on the 384 recording substrate. The control P2X3 current amplitude was taken from the peak current amplitude from the second agonist response prior to preincubation with antagonist. The peak P2X3 current amplitude in the presence of antagonist was used to calculate the inhibitory effect at each concentration of the antagonist according to the following equation: Percentage inhibition of P2X3=(P2X3 control peak amplitude-P2X3 antagonist peak amplitude)/P2X3 control peak amplitude)*100
Concentration-response curves were constructed from ten different concentrations with each concentration of antagonist tested on at least two individual cells. The concentration of the antagonist to inhibit P2X3 current by 50% (IC50) was determined by fitting the data with the following equation: Y=a+[(b−a)/(1+10^((log c−x)d)]
Where ‘a’ is minimum response, ‘b’ is maximum response, ‘c’ is IC50 and ‘d’ is Hill slope.
The results for individual compounds are provided below in Table 2 and are expressed as range of activity.

h P2X2/3 = target: T2, h P2X2/3 (Homo sapiens, UniProt P56373+Q9UBL9); test: In vitro electrophysiology assay for P2X2/3 (same protocol, 10 μM ATP agonist); type: cell-based; details: Table 3; 10 μM ATP as agonist, mean current amplitude seven seconds after agonist; read-out: h P2X2/3 (pIC50 range of activity) (converted)
T2 construct: same protocol as the P2X3 assay
T2 sequence (P56373 1-397): T1 sequence (P56373 1-397)
T2 sequence (Q9UBL9 1-471): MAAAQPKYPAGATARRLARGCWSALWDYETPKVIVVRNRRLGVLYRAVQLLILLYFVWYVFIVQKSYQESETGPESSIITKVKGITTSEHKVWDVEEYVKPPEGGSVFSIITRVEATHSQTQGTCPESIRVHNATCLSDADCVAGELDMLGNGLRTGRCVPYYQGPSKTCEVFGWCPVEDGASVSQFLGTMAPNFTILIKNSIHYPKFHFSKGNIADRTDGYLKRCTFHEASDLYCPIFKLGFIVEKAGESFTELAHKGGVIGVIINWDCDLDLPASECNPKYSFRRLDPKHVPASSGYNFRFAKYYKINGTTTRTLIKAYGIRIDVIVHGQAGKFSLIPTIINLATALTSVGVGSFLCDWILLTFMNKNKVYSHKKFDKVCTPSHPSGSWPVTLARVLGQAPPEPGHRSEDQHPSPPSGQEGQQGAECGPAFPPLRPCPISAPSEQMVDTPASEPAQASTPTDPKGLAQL
Procedure: Cells expressing P2X3 receptors were grown according to standard practice and maintained at 37° C. in a 5% humidified CO2 atmosphere. The cells were seeded into T175 flask 2 days prior to the day of the assay and dissociated from the flasks using TrypLE when grown to confluence of 80-90%. The dissociated cells were resuspended in serum free media at a cell density of 3×10^6 cells/ml and loaded onto the Sophion Qube automated patch-clamp system. The extracellular assay buffer contained 145 mM NaCl, 4 mM KCl, 2 mM CaCl2, 1 mM MgCl2, 10 mM HEPES, and 10 mM glucose at pH 7.4. The intracellular assay solution contained 140 mM CsF, 10 mM NaCl, 10 mM EGTA, 10 mM HEPES at pH 7.2. Agonist stock solutions were prepared in H2O and diluted in bath solution prior to use. All antagonists were prepared as 10 mM stock solutions in DMSO and diluted in bath solution prior to use. […] One concentration of an antagonist was assessed against a single cell, with different concentrations of the antagonist applied to other cells on the 384 recording substrate. […]
The same assay protocol was used for the P2X2/3 assay as the P2X3 assay with two modifications: 1) 10 μM ATP was used as the agonist; and 2) the mean current amplitude was measured seven seconds after the application of agonist.

[1] = Table 2, whole-cell patch clamp, 800 nM α,β-MeATP, 10 min antagonist preincubation, read-out: h P2X3 (pIC50 range of activity) (converted)
[2] = whole-cell patch clamp, 800 nM α,β-MeATP

SMILES | IC50 (h P2X3; [1]) [nM] | further results
Cc1ccc(C(C)Nc2nnc(C3CC3)c3ccc(-c4ccn(C)n4)cc23)nn1 (racemic) [Example 16, 4-Cyclopropyl-7-(1-methyl-1H-pyrazol-3-yl)-N-(1-(6-methylpyridazin-3-yl)ethyl)phthalazin-1-amine] | 316 to 3160 | 
Cc1ccc(C(C)Nc2nnc(C3CCOCC3)c3ccc(-c4ccc(F)cn4)cc23)nn1 (single isomer, unassigned) [Example 11, 7-(5-Fluoropyridin-2-yl)-N-(1-(6-methylpyridazin-3-yl)ethyl)-4-(tetrahydro-2H-pyran-4-yl)phthalazin-1-amine] | 316 to 3160 | 
Cc1ccc(CNc2nccc3ccc(-c4ccc(F)cc4)cc23)nn1 [Comparative Example A, reference compound] |  | IC50 (h P2X3; in vitro assay on P2X3 as described above, read-out: activity on receptor P2X3 expressed as pIC50 (converted)): > 3160 nM
Cc1cnc(-c2ccc3c(C4CCOCC4)nnc(NCc4ccc(C)nn4)c3c2)nc1 [Example 1, N-((6-Methylpyridazin-3-yl)methyl)-7-(5-methylpyrimidin-2-yl)-4-(tetrahydro-2H-pyran-4-yl)phthalazin-1-amine] | 316 to 3160 | IC50 (h P2X2/3): 3160 to 31600 nM; h P2X3 (pIC50 range of activity) (h P2X3; [2]): ++ (++: 6.5<pIC50 h P2X3 or h P2X2/3>5.5)
Fc1ccc(-c2ccc3cnnc(NCC4CC4)c3c2)cc1 [Example 2, N-(Cyclopropylmethyl)-7-(4-fluorophenyl)phthalazin-1-amine] | 316 to 3160 | 
Cc1ccc(CNc2nncc3ccc(-c4ccc(F)cc4)cc23)nn1 [Example 3, 7-(4-Fluorophenyl)-N-((6-methylpyridazin-3-yl)methyl)phthalazin-1-amine] | < 316 | 
C[C@@H](Nc1nnc(C2CC2)c2ccc(-c3ccc(F)cc3)cc12)c1cnc(C(F)(F)F)nc1 [Example 4, (R)-4-Cyclopropyl-7-(4-fluorophenyl)-N-(1-(2-(trifluoromethyl)pyrimidin-5-yl)ethyl)phthalazin-1-amine] | 316 to 3160 | 
Cc1ccc([C@@H](C)Nc2nnc(C3CC3)c3ccc(-c4ccc(F)cc4)cc23)nn1 [Example 5, (R)-4-Cyclopropyl-7-(4-fluorophenyl)-N-(1-(6-methylpyridazin-3-yl)ethyl)phthalazin-1-amine] | < 316 | IC50 (h P2X2/3): 316 to 3160 nM; h P2X3 (pIC50 range of activity) (h P2X3; [2]): +++ (+++: pIC50 h P2X3 or h P2X2/3>6.5)
C[C@@H](Nc1nnc(C2CCOCC2)c2ccc(-c3ccc(F)cc3)cc12)c1cnc(C(F)(F)F)nc1 [Example 6, (R)-7-(4-Fluorophenyl)-4-(tetrahydro-2H-pyran-4-yl)-N-(1-(2-(trifluoromethyl)pyrimidin-5-yl)ethyl)phthalazin-1-amine] | 316 to 3160 | 
Cc1ccc([C@@H](C)Nc2nnc(C3CCOCC3)c3ccc(-c4ccc(F)cc4)cc23)nn1 [Example 7, (R)-7-(4-Fluorophenyl)-N-(1-(6-methylpyridazin-3-yl)ethyl)-4-(tetrahydro-2H-pyran-4-yl)phthalazin-1-amine] | < 316 | 
Cc1ccc(CNc2nnc(C3CCOCC3)c3ccc(-c4ccc(F)cn4)cc23)nn1 [Example 9, 7-(5-Fluoropyridin-2-yl)-N-((6-methylpyridazin-3-yl)methyl)-4-(tetrahydro-2H-pyran-4-yl)phthalazin-1-amine] | 316 to 3160 | 
Cc1ccc(CNc2nnc(CC3CCOCC3)c3ccc(-c4ccc(F)cn4)cc23)nn1 [Example 10, 7-(5-Fluoropyridin-2-yl)-N-((6-methylpyridazin-3-yl)methyl)-4-((tetrahydro-2H-pyran-4-yl)methyl)phthalazin-1-amine] | 316 to 3160 | 
Cc1ccc(CNc2nncc3ccc(-c4ncc(C)s4)cc23)nn1 [Example 13, N-[(6-Methylpyridazin-3-yl)methyl]-7-(5-methylthiazol-2-yl)phthalazin-1-amine] | < 316 | 
Cc1cnc(-c2ccc3c(CC4CCOCC4)nnc(NCc4nc(C(F)(F)F)no4)c3c2)s1 [Example 14, 7-(5-Methylthiazol-2-yl)-4-((tetrahydro-2H-pyran-4-yl)methyl)-N-((3-(trifluoromethyl)-1,2,4-oxadiazol-5-yl)methyl)phthalazin-1-amine] | 316 to 3160 | 
Cc1ccc(CNc2nnc(CC3CCOCC3)c3ccc(-c4ncc(C)s4)cc23)nn1 [Example 15, N-((6-Methylpyridazin-3-yl)methyl)-7-(5-methylthiazol-2-yl)-4-((tetrahydro-2H-pyran-4-yl)methyl)phthalazin-1-amine] | 316 to 3160 | 
Cc1ccc(C(C)Nc2nnc(C3CCOCC3)c3ccc(-c4ccn(C)n4)cc23)nn1 (stereo not drawn) [Example 17, 7-(1-Methylpyrazol-3-yl)-N-[1-(6-methylpyridazin-3-yl)ethyl]-4-tetrahydropyran-4-yl-phthalazin-1-amine] | 316 to 3160 | 
Cc1ccc(C(C)Nc2nnc(C3CC3)c3ccc(-c4ccn(C)n4)cc23)nn1 (stereo not drawn) [Example 19, 4-Cyclopropyl-7-(1-methyl-1H-pyrazol-3-yl)-N-(1-(6-methylpyridazin-3-yl)ethyl)phthalazin-1-amine] | 316 to 3160 | 
